Test results taken from ChEMBL document CHEMBL5625253, “Discovery of novel benzofuran-based derivatives as acetylcholinesterase inhibitors for the treatment of Alzheimer's disease: Design, synthesis, biological evaluation, molecular docking and 3D-QSAR investigation” (Eur J Med Chem, 2023).
pIC50: −log10 of the molar value. The source made the active and inactive calls. No cut-off for these calls is given here.

Tests used:
Acetylcholinesterase = Acetylcholinesterase (Homo sapiens, UniProt P22303); experiment: Inhibition of AChE (unknown origin) using […] as substrate incubated for 15 to 20 mins by DTNB reagent based Ellman's method
Chain of Acetylcholinesterase (P22303 whole entry): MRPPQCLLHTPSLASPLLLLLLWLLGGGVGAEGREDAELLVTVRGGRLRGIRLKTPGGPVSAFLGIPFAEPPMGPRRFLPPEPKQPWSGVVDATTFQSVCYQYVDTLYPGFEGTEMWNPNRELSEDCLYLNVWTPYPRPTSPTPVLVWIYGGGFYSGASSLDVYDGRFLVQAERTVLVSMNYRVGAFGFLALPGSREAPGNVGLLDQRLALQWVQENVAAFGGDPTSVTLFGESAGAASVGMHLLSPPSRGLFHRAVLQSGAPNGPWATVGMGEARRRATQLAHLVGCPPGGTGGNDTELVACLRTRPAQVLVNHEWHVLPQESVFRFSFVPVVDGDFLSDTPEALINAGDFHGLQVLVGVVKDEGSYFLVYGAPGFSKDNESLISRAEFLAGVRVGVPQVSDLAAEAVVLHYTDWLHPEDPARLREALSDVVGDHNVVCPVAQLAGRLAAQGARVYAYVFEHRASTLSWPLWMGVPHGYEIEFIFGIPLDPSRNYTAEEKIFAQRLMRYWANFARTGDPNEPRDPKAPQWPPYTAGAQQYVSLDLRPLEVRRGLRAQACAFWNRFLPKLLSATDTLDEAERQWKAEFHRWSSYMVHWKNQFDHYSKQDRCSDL

[1] = Antioxidant activity assessed as DPPH radical scavenging activity at 0.05 ug/ml incubated for 1 hr under dark condition by absorbance based assay relative to control; type: functional; details: dose 0.05 µg/ml
[2] = Antioxidant activity assessed as DPPH radical scavenging activity at 0.01 ug/ml incubated for 1 hr under dark condition by absorbance based assay relative to control; type: functional; details: dose 0.01 µg/ml
Rattus norvegicus [3] = experiment: Antialzheimer activity against AlCl3-induced Alzheimer's disease Wistar albino rat model assessed as improvement in GSH level in brain at 10 mg/kg,po for 6 weeks relative to control; type: functional
Rattus norvegicus [4] = experiment: Antialzheimer activity against AlCl3-induced Alzheimer's disease Wistar albino rat model assessed as degeneration of pyramidal neurons in hippocampus at 10 mg/kg,po for 6 weeks by hematoxylin and eosin staining based microscopic analysis; type: functional
Rattus norvegicus [5] = experiment: Antialzheimer activity against AlCl3-induced Alzheimer's disease Wistar albino rat model assessed as GSH level in brain at 10 mg/kg,po for 6 weeks; type: functional
Rattus norvegicus [6] = experiment: Antialzheimer activity against AlCl3-induced Alzheimer's disease Wistar albino rat model assessed as MDA level in brain at 10 mg/kg,po for 6 weeks; type: functional
Rattus norvegicus [7] = experiment: Antialzheimer activity against AlCl3-induced Alzheimer's disease Wistar albino rat model assessed as time taken to reach the food at 10 mg/kg,po for 6 weeks by T-maze test; type: functional
Rattus norvegicus [8] = experiment: Antialzheimer activity against AlCl3-induced Alzheimer's disease Wistar albino rat model assessed as gliosis at 10 mg/kg,po for 6 weeks by hematoxylin and eosin staining based microscopic analysis; type: functional
Rattus norvegicus [9] = experiment: Antialzheimer activity against AlCl3-induced Alzheimer's disease Wistar albino rat model assessed as improvement in MDA level in brain at 10 mg/kg,po for 6 weeks relative to control; type: functional
Rattus norvegicus [10] = experiment: Antialzheimer activity against AlCl3-induced Alzheimer's disease Wistar albino rat model assessed as change in GSH level in brain at 10 mg/kg,po for 6 weeks relative to control; type: functional
Rattus norvegicus [11] = experiment: Antialzheimer activity against AlCl3-induced Alzheimer's disease Wistar albino rat model assessed as change in MDA level in brain at 10 mg/kg,po for 6 weeks relative to control; type: functional
Rattus norvegicus [12] = experiment: Antialzheimer activity against AlCl3-induced Alzheimer's disease Wistar albino rat model assessed as improvement in cognitive ability at 10 mg/kg,po for 6 weeks by T-maze test; type: functional
[13] = Toxicity in Wistar rat assessed as hemoglobin level in blood at 10 mg/kg,po (reference value: 14.5 +/- 1 g/dl); type: organism-based; details: in vivo
[14] = Toxicity in Wistar rat assessed as mean corpuscular volume in blood at 10 mg/kg,po (reference value: 59 +/- 5 fL); type: organism-based; details: in vivo
[15] = Toxicity in Wistar rat assessed as histopathological change in kidney at 10 mg/kg,po by hematoxylin and eosin staining based microscopic analysis; type: organism-based; details: in vivo
[16] = Toxicity in Wistar rat assessed as red blood cell distribution width in blood at 10 mg/kg,po (reference value: 17.2 +/- 0.22 %); type: organism-based; details: in vivo
[17] = Toxicity in Wistar rat assessed as AST level in liver at 10 mg/kg,po (reference value: 67 +/- 5.1 U/L); type: organism-based; details: in vivo
[18] = Acute toxicity in Wistar rat assessed as mortality at 100 mg/kg,po observed after 1 month; type: organism-based; details: in vivo, 730 h, time 1 months
[19] = Acute toxicity in Wistar rat assessed as loose bowels at 10 mg/kg,po administrated for 1 month; type: organism-based; details: in vivo, 730 h, time 1 months
[20] = Toxicity in Wistar rat assessed as RBC level in blood at 10 mg/kg,po; type: organism-based, Erythrocyte; details: in vivo
[21] = Toxicity in Wistar rat assessed as ALT level in liver at 10 mg/kg,po (reference value: 27 +/- 2 U/L); type: organism-based; details: in vivo
[22] = Toxicity in Wistar rat assessed as histopathological change in heart at 10 mg/kg,po by hematoxylin and eosin staining based microscopic analysis; type: organism-based; details: in vivo
[23] = Toxicity in Wistar rat assessed as histopathological change in brain at 10 mg/kg,po by hematoxylin and eosin staining based microscopic analysis; type: organism-based; details: in vivo
[24] = Toxicity in Wistar rat assessed as ALP level in liver at 10 mg/kg,po (reference value: 140 +/- 6 U/L); type: organism-based; details: in vivo
[25] = Toxicity in Wistar rat assessed as bilirubin level in liver at 10 mg/kg,po (reference value: 0.6 +/- 0.08 mg/dl); type: organism-based; details: in vivo
[26] = Toxicity in Wistar rat assessed as […] cell volume in blood at 10 mg/kg,po (reference value: 43 +/- 3.1 %); type: organism-based; details: in vivo
[27] = Toxicity in Wistar rat assessed as mean corpuscular hemoglobin concentration in blood at 10 mg/kg,po (reference value: 33.8 +/- 2.1 g/dl); type: organism-based; details: in vivo
[28] = Acute toxicity in Wistar rat assessed as mortality at 50 mg/kg,po observed after 1 month; type: organism-based; details: in vivo, 730 h, time 1 months
[29] = Toxicity in Wistar rat assessed as Kupffer cell proliferation in liver at 10 mg/kg,po by hematoxylin and eosin staining based microscopic analysis; type: organism-based; details: in vivo
[30] = Acute toxicity in Wistar rat assessed as mortality at 100 mg/kg,po observed after 24 hrs; type: organism-based; details: in vivo
[31] = Acute toxicity in Wistar rat assessed as mortality at 10 mg/kg,po administrated for 1 month; type: organism-based; details: in vivo, 730 h, time 1 months
[32] = Toxicity in Wistar rat assessed as mean corpuscular hemoglobin in blood at 10 mg/kg,po (reference value: 19 +/- 1.77 pg); type: organism-based; details: in vivo
[33] = Toxicity in Wistar rat assessed as mean platelet volume in blood at 10 mg/kg,po (reference value: 7.3 +/- 0.12 fL); type: organism-based; details: in vivo
[34] = Acute toxicity in Wistar rat assessed as mortality at 50 mg/kg,po observed after 24 hrs; type: organism-based; details: in vivo
[35] = Toxicity in Wistar rat assessed as urea level in liver at 10 mg/kg,po (reference value: 33.6 +/- 2.65 mg/dl); type: organism-based; details: in vivo
[36] = Toxicity in Wistar rat assessed as glucose level in liver at 10 mg/kg,po (reference value: 105 +/- 8.44 mg/dl); type: organism-based; details: in vivo
[37] = Toxicity in Wistar rat assessed as albumin level in liver at 10 mg/kg,po (reference value: 3.28 +/- 0.43 mg/dl); type: organism-based; details: in vivo
[38] = Toxicity in Wistar rat assessed as haematocrit level in blood at 10 mg/kg,po (reference value: 38.16 +/- 2.44 %); type: organism-based; details: in vivo
[39] = Toxicity in Wistar rat assessed as creatinine level in liver at 10 mg/kg,po (reference value: 0.68 +/- 0.03 mg/dl); type: organism-based; details: in vivo
Rattus norvegicus [40] = experiment: Antialzheimer activity against AlCl3-induced Alzheimer's disease Wistar albino rat model assessed as decrease in cellular density in hippocampal region of brain at 10 mg/kg,po for 6 weeks by hematoxylin and eosin staining based microscopic analysis; type: functional, organism-based

Compound: O=C(/C=C/Nc1cccc(Br)c1)c1cc2ccccc2o1
- pIC50 (Acetylcholinesterase): 6.50
- Activity [1]: 17.9%
- Activity [2]: 9.29%

Compound: O=C(/C=C/Nc1ccc(S(=O)(=O)Nc2ccccn2)cc1)c1cc2ccccc2o1
- pIC50 (Acetylcholinesterase): 5.97
- Activity [1]: 76.1%
- Activity [2]: 2.2%

Compound: O=C(/C=C/Nc1ccc(Br)cc1)c1cc2ccccc2o1
- pIC50 (Acetylcholinesterase): 5.96
- Activity [1]: 27%
- Activity [2]: 22.2%

Compound: NS(=O)(=O)c1ccc(N/C=C/C(=O)c2cc3ccccc3o2)cc1
- pIC50 (Acetylcholinesterase): 6.05
- Activity [1]: 13%
- Activity [2]: 18.4%

Compound: Cc1cc(NS(=O)(=O)c2ccc(N/C=C/C(=O)c3cc4ccccc4o3)cc2)no1
- pIC50 (Acetylcholinesterase): 6.55
- Activity [1]: 65.2%
- Activity [2]: 71.7%

Compound: CN(C)/C=C/C(=O)c1cc2ccccc2o1
- pIC50 (Acetylcholinesterase): 5.57
- Activity [1]: 56.4%
- Activity [2]: 11.4%

Compound: CC(=O)c1ccc(N/C=C/C(=O)c2cc3ccccc3o2)cc1
- pIC50 (Acetylcholinesterase): 5.23
- Activity [1]: 27%
- Activity [2]: 10%

Compound: N=C(N)NS(=O)(=O)c1ccc(N/C=C/C(=O)c2cc3ccccc3o2)cc1
- pIC50 (Acetylcholinesterase): 6.04
- Activity [1]: 35%
- Activity [2]: 25%

Compound: O=C(/C=C/Nc1ccc(S(=O)(=O)Nc2ncccn2)cc1)c1cc2ccccc2o1
- pIC50 (Acetylcholinesterase): 6.45
- Activity [1]: 37.5%
- Activity [2]: 5%

Compound: O=C(O)c1cccc(N/C=C/C(=O)c2cc3ccccc3o2)c1
- pIC50 (Acetylcholinesterase): 5.42
- Activity [1]: 65%
- Activity [2]: 22.5%

Compound: O=C(/C=C/Nc1ccccc1C(=O)O)c1cc2ccccc2o1
- pIC50 (Acetylcholinesterase): 5.68
- Activity [1]: 65%
- Activity [2]: 23.5%

Compound: Cc1ccc(N/C=C/C(=O)c2cc3ccccc3o2)cc1
- pIC50 (Acetylcholinesterase): 6.40
- Activity [1]: 40%
- Activity [2]: 21.3%

Compound: O=C(/C=C/Nc1ccc(Cl)cc1)c1cc2ccccc2o1
- pIC50 (Acetylcholinesterase): 5.67
- Activity [1]: 65.3%
- Activity [2]: 28.2%

Compound: CCOC(=O)c1ccc(N/C=C/C(=O)c2cc3ccccc3o2)cc1
- pIC50 (Acetylcholinesterase): 5.67
- Activity [1]: 28.6%
- Activity [2]: 21.4%

Compound: Cc1cccc(N/C=C/C(=O)c2cc3ccccc3o2)c1
- pIC50 (Acetylcholinesterase): 6.21
- Activity [1]: 14.3%
- Activity [2]: 12.1%

Compound: COc1cc2c(cc1OC)C(=O)C(CC1CCN(Cc3ccccc3)CC1)C2 (configuration not stated) [DONEPEZIL]
- Activity (Rattus norvegicus [3]): 33.02%
- Activity (Rattus norvegicus [4]): <10%
- Activity (Rattus norvegicus [5]): 17.62 mg
- Activity (Rattus norvegicus [6]): 47.17 nmol
- Time (Rattus norvegicus [7]): 26 s
- Activity (Rattus norvegicus [8]): <10%
- Activity (Rattus norvegicus [9]): 278.43%
- Activity (Rattus norvegicus [10]): 18.05%
- Activity [1]: 30.2%
- Activity [2]: 20.4%
- Activity (Rattus norvegicus [11]): 67.86%
- Activity (Rattus norvegicus [12]): 112.14%

Compound: CC(=O)c1cccc(N/C=C/C(=O)c2cc3ccccc3o2)c1
- Activity [13]: 14.8 g/dL
- Activity [14]: 56 fL
- Activity [15]: Non-Toxic
- Activity (Rattus norvegicus [3]): 26.98%
- Activity (Rattus norvegicus [4]): <10%
- Activity [16]: 16.6%
- Activity [17]: 68 U/L
- Activity (Rattus norvegicus [5]): 16.32 mg
- Activity [18]: Non-Toxic
- Activity [19]: Non-Toxic
- Activity [20]: 6.29 10^6/µL
- Activity [21]: 29 U/L
- Activity (Rattus norvegicus [6]): 57.14 nmol
- Time (Rattus norvegicus [7]): 27 s
- Activity (Rattus norvegicus [8]): <10%
- Activity [22]: Non-Toxic
- pIC50 (Acetylcholinesterase): 6.72
- Activity [23]: Non-Toxic
- Activity [24]: 136 U/L
- Activity [25]: 0.67 mg/dL
- Activity [26]: 42.16%
- Activity (Rattus norvegicus [9]): 242.95%
- Activity [27]: 31 g/dL
- Activity (Rattus norvegicus [10]): 24.09%
- Activity [28]: Non-Toxic
- Activity [29]: Non-Toxic
- mortality at 24 h [30]: 25%
- Activity [31]: Non-Toxic
- Activity [32]: 18.6 pg
- Activity [33]: 6.9 fL
- Activity [1]: 67.6%
- Activity [34]: Non-Toxic
- Activity [2]: 63.1%
- Activity [35]: 32 mg/dL
- Activity [36]: 115 mg/dL
- Activity (Rattus norvegicus [11]): 103.35%
- Activity (Rattus norvegicus [12]): 107.04%
- Activity [37]: 3.3 mg/dL
- Activity [38]: 39.4%
- Activity [39]: 0.72 mg/dL
- Activity (Rattus norvegicus [40]): Active

Compound: O=C1O[C@H]([C@@H](O)CO)C(O)=C1O
- Activity [1]: 89%
- Activity [2]: 81%

Compound: O=C(/C=C/Nc1cccc([N+](=O)[O-])c1)c1cc2ccccc2o1
- pIC50 (Acetylcholinesterase): 6.13
- Activity [1]: 82.6%
- Activity [2]: 76.1%

Compound: O=C(/C=C/Nc1ccc(F)cc1)c1cc2ccccc2o1
- pIC50 (Acetylcholinesterase): 6.31
- Activity [1]: 76.1%
- Activity [2]: 73.9%

Compound: O=C(/C=C/Nc1ccccc1O)c1cc2ccccc2o1
- pIC50 (Acetylcholinesterase): 6.51
- Activity [1]: 90%
- Activity [2]: 65.5%

Compound: O=C(O)c1ccc(N/C=C/C(=O)c2cc3ccccc3o2)cc1
- pIC50 (Acetylcholinesterase): 6.10
- Activity [1]: 35%
- Activity [2]: 5.71%
